Assays:
mESC and MEF = test: Secondary screening by flow cytometry (mESC and MEF incubated separately); assay type: cell-based, mouse; settings: 2 μM, 1 hour
Method: To evaluate the application of chalcone derivatives as ESC-selective probes, 320 chalcone compounds were screened in mouse ESC (mESC) and mouse embryonic fibroblast (MEF) feeder cells prepared on 384-well cell culture microplates. From the image-based primary screening, 8 compounds that stained mESC consistently with stronger intensity than MEF were selected. For the secondary screening, mESC and MEF were incubated separately with each of the hit compounds and subsequently analyzed using flow cytometry.
(§1) MEFs and mESCs were cultured in 60 mm culture dish for 1 hour in the presence of 2 μM of hit compounds, including CDg4. The cells were harvested by trypsin treatment, washed with PBS and resuspended in PBS. The fluorescence intensity of the cells was measured on Flow Cytometry (BD™ LSR II) with FITC ([…], emission at 560 nm). The dot plot images for each cell type were overlaid using FlowJo7 (Three Star Inc.) For FACS MEF and mESC were cultured in a same dish and the sample was prepared as described above for flow cytometry. The cells gated into SSClow CDgreen4 bright and SSChigh CDgreen4 dim regions were collected using a FACS machine (BD FACSAria™).

mixture of mESC and MEF = test: Enrichment of mESC from mESC/MEF mixture using FACS and fluorescence microscopy; assay type: cell-based, mouse; settings: for mESC enrichment / sorting from mixed-cell population: FACS, mESC and MEF in same dish; for selective staining of ESC versus MEF feeder: live mESC cultured on MEF feeder, fluorescence microscopy
Method: To confirm the secondary screening data, a mixture of mESC and MEF was incubated with […]. The cell mixture was sorted using Fluorescence-Activated Cell Sorting (FACS).
as §1

[1] = tested on: induced pluripotent stem cell (iPSC); test: Staining and FACS isolation of induced pluripotent stem cells; assay type: cell-based, mouse; settings: iPSC from MEF of Oct4-GFP transgenic mice
Method: The iPS cells were maintained in mESC culture medium which was changed every day until designated time point. 4 dpi iPS was incubated with 2 μM of CDg4 for 1 hr at 37° C. The cells were harvested by trypsin treatment, washed with PBS and resuspended in PBS. The cells gated into SSClow CDg4 bright (R2) and SSChigh CDg4 dim (R1) regions were collected using a FACS machine (BD FACSAria™).
CDg4 was applied to induced pluripotent stem cell (iPSC) which was generated from MEF of transgenic mice that express GFP under the control of Oct4 (also known as Pou5f1) promoter. […] FACS was used to isolate early iPS cell population stained by CDg4. (FIG. 2). Isolation of the early iPS cell population will facilitate gene profiling using DNA microarray of this cell population. While gene expression profiling for mixture populations or using cell lines are reported, with lack of direct marker or probes for early iPS, it was not possible to study with purified early iPS.
The retroviral packaging cell, PlatE cell, was maintained in DMEM containing 10% FBS, 100 U/ml penicillin, 100 μg/ml streptomycin, 10 μg/ml blasticidin 5 and 1 μg/ml puromycin. […]

[2] = Fluorescence property measurement; assay type: physicochemical
Method: All reactions were performed in oven-dried glassware under a positive pressure of nitrogen. Unless otherwise noted, starting materials and solvents were purchased from Aldrich and Acros Organics and used without further purification. Analytical TLC was carried out on Merck 60 F254 silica gel plate (0.25 mm layer thickness) and visualization was done with UV light. Column chromatography was performed on Merck 60 silica gel (230-400 mesh). NMR spectra were recorded on a Bruker Avance 300 NMR spectrometer. Chemical shifts are reported as δ in units of parts per million (ppm) and coupling constants are reported as a J value in Hertz (Hz). Mass of all the compounds was determined by LC-MS of Agilent Technologies with an electrospray ionization source. All fluorescence assays were performed with a Gemini XS fluorescence plate reader.
10 μM solutions in DMSO were prepared and the absorption and emission of library compounds was measured. FIG. 3 is a representative absorbance and fluorescence spectrum.

C=CC(=O)Nc1ccc(C(=O)/C=C/c2ccc(N(C)CCO)cc2)cc1 [CDg4]
selectivity for mESCs (side scatter and fluorescence intensity dot plot overlay of mESC and MEF) (mESC and MEF): most selective for mESCs among the 8 hit compounds | mESC enrichment / sorting from mixed-cell population (mixture of mESC and MEF): selective sorting and isolation from mixture of Feeder cells even up to day 5 | mESC enrichment / sorting from mixed-cell population (mixture of mESC and MEF; listed as CD4): can be used for mESC enrichment from a mixed-cell population | selective staining of ESC versus MEF feeder (mixture of mESC and MEF): much more brightly stained by CDg4 than MEF | selective staining of ESC versus MEF feeder (mixture of mESC and MEF; listed as CDgreen4): selectively stains embryonic stem cells (ESC) and iPSC in a feeder cell-based culture system | staining of iPSC colony [1]: selectively stained the iPSC colony | λem [2]: 560 nm | λex [2]: 430 nm
